What follows are molecules tested against T1, human GCS (glucosylceramide synthase) (Homo sapiens, UniProt Q16739) (assay: Glucosylceramide Synthase (GCS) Assay). Settings: test compound 10 μM; microsome fraction of Expi293F cells expressing human GCS; 1.7 μM UDP-glucose, 3 μM C8 ceramide; room temperature 60 min; C8 glucosylceramide by Rapidfire MS/MS; read-out: GCS enzyme inhibitory rate at 10 μM (%).
T1 construct: made in house; host or cells: Expi293F cells (transient expression; microsome fraction)
T1 sequence (Q16739 1-394): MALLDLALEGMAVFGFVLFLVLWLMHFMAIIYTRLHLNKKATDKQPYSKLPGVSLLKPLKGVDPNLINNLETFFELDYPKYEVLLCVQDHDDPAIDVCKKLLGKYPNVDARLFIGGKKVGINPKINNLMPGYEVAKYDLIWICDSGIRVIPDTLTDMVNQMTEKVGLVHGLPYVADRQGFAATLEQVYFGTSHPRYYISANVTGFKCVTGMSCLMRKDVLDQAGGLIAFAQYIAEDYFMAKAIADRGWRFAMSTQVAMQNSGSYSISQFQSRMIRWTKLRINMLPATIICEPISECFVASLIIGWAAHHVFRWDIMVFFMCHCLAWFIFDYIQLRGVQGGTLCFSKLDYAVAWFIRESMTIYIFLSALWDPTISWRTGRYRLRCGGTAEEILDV
Type: biochemical
Procedure: In enzyme assay, a microsome fraction obtained by transient expression by Expi293F™ cells (catalog number: A14527, Thermo Fisher Scientific) was used as a glucosylceramide synthase source. Liposomal C8 ceramide and UDP-glucose were used as substrates. For each substrate concentration, 1.7 μM UDP-glucose, which is equal to the Km value, and 3 μM C8 ceramide were used. After the enzymatic reaction, the analysis was performed with Rapidfire MS/MS (API-4000™, SCIEX), and C8 glucosylceramide was quantified to evaluate the inhibitory activity of the test compound against glucosylceramide synthase activity.
PcDNA3.3TOPO vector (catalog number: K830001, Thermo Fisher Scientific) into which the human GCS gene was inserted was introduced into Expi293F™ Cells (catalog number: A14527, Thermo Fisher Scientific) by using ExpiFectamine™ 293 Transfection Kit (catalog number: A14525, Thermo Fisher Scientific). The cultured cells were dissolved in D-PBS (catalog number: 048-29805, Fuji Film Wako Pure Chemical Industries, Ltd.) containing 1 mM PMSF, and the solution was allowed to stand on ice for 30 minutes, and then subjected to cell disruption (homogenized). The disruption solution was centrifuged at 10,000×g for 20 minutes at 4° C., and the obtained supernatant was centrifuged at 142,400×g for 60 minutes at 4° C. The obtained precipitate was resuspended in a D-PBS solution containing 1 mM PMSF, and homogenized again to prepare as a microsome fraction. Protein quantification was performed by the CBB method.
A 1 mM compound solution prepared by dissolving the test compound in DMSO was added to a 384-well plate by 100 nL so that the final concentration of the test compound was 10 μM. Next, a substrate solution consisting of 3.4 μM UDP-glucose and 6 μM C8 ceramide was added by 5 μL, followed by an enzyme solution consisting of a 25 μg/mL microsome fraction by 5 μL. C8 ceramide was prepared from liposomes composed of 15 mol % C8 ceramide and 85 mol % dioleoyl phosphatidylcholine (1,2-dioleoyl-sn-glycero-3-phosphocholine: DOPC). The enzymatic reaction was carried out in a solution consisting of 20 mM tris-hydrochloric acid buffer (pH 7.5), 0.01% Tween 20, 0.01% bovine serum albumin and 1 mM dithiothreitol at room temperature for 60 min. Then, a solution consisting of 75% isopropanol and 1% formic acid containing 0.25 μM N-Octadecanoyl-D35-psichosine (catalog number: 1914, Matreya) as an internal standard substance was added by 60 μL to stop the enzymatic reaction. 5 μL of the centrifugal supernatant of the obtained reaction product was analyzed by Rapidfire MS/MS (Agilent Technologies) using API-4000™ (SCIEX), and the C8 glucosylceramide was quantified to evaluate the inhibitory activity of the test compound against the glucosylceramide synthase activity. The inhibitory activity of the test compound was evaluated when the C8 glucosylceramide level in the enzyme-free solution was considered as 100% inhibitory and the enzyme activity of the DMSO group in the absence of the compound was considered as 0% inhibitory.

inhibition at 10 µM [%]	Structure (SMILES)
57	COc1cc(F)ccc1-n1cccc(C(=O)Nc2ccc(C3CC3)nc2)c1=O [Example 7, N-(6-cyclopropylpyridin-3-yl)-1-(4-fluoro-2-methoxyphenyl)-2-oxo-1,2-dihydropyridine-3-carboxamide]
97	O=C(Nc1ccc(C(F)(F)F)nn1)c1cccn(-c2ccc(F)cc2OCC(F)(F)F)c1=O [Example 38, 1-[4-fluoro-2-(2,2,2-trifluoroethoxy)phenyl]-2-oxo-N-[6-(trifluoromethyl)pyridazin-3-yl]-1,2-dihydropyridine-3-carboxamide]
99	O=C(Nc1ccc(C(O)(C(F)F)C(F)F)nc1)c1cn(CC2COC2)nc(-c2ccccc2OCC(F)F)c1=O [Example 188, 6-[2-(2,2-difluoroethoxy)phenyl]-2-[(oxetan-3-yl)methyl]-5-oxo-N-[6-(1,1,3,3-tetrafluoro-2-hydroxypropan-2-yl)pyridin-3-yl]-2,5-dihydropyridazine-4-carboxamide]
100	Cn1cc(C(=O)Nc2ccc(C(C)(C)O)cc2)c(=O)c(-c2ccccc2OCC(F)F)n1 [Example 158, 6-[2-(2,2-difluoroethoxy)phenyl]-N-[4-(2-hydroxypropan-2-yl)phenyl]-2-methyl-5-oxo-2,5-dihydropyridazine-4-carboxamide]
100	CC(C)(O)c1ccc(NC(=O)c2cn(C3COC3)nc(-c3ccccc3OCC(F)F)c2=O)cc1 [Example 183]
98	O=C(Nc1ccc(C(O)C2CC2)nc1)c1cccn(-c2ccccc2OCC(F)(F)F)c1=O (racemic) [Example 76, rac-N-{6-[cyclopropyl(hydroxy)methyl]pyridin-3-yl}-2-oxo-1-[2-(2,2,2-trifluproethoxy)phenyl]-1,2-dihydropyridine-3-carboxamide]
94	CC(C)(O)c1ccc(NC(=O)c2cccn(-c3ccc(F)cc3OCC(F)(F)F)c2=O)cn1 [Example 85, 1-[4-fluoro-2-(2,2,2-trifluoroethoxy)phenyl]-N-[6-(2-hydroxypropan-2-yl)pyridin-3-yl]-2-oxo-1,2-dihydropyridine-3-carboxamide]
100	CC(C)(O)c1ccc(NC(=O)c2cccn(-c3ccccc3OCC(F)(F)F)c2=O)cc1 [Example 63]
100	O=C(Nc1ccc(C(O)(C(F)F)C(F)F)cc1)c1cn(C2CCOC2)nc(-c2ccccc2OCC(F)F)c1=O (racemic) [Example 196, rac-6-[2-(2,2-difluoroethoxy)phenyl]-5-oxo-2-(oxolan-3-yl)-N-[4-(1,1,3,3-tetrafluoro-2-hydroxypropan-2-yl)phenyl]-2,5-dihydropyridazine-4-carboxamide]
96	CC(C)(O)Cn1cc(C(=O)Nc2ccc(OCC(F)(F)F)cc2)c(=O)c(-c2ccccc2OCC(F)F)n1 [Example 168, 6-[2-(2,2-difluoroethoxy)phenyl]-2-(2-hydroxy-2-methylpropyl)-5-oxo-N-[4-(2,2,2-trifluoroethoxy)phenyl]-2,5-dihydropyridazine-4-carboxamide]
100	O=C(Nc1ccc(C(O)(C(F)(F)F)C(F)(F)F)cc1)c1cccn(-c2ccc(F)cc2OCC(F)(F)F)c1=O [Example 103, 1-[4-fluoro-2-(2,2,2-trifluoroethoxy)phenyl]-N-[4-(1,1,1,3,3,3-hexafluoro-2-hydroxypropan-2-yl)phenyl]-2-oxo-1,2-dihydropyridine-3-carboxamide]
100	Cn1cc(C(=O)Nc2ccc(C(O)(C(F)F)C(F)F)nc2)c(=O)c(-c2ccccc2OCC(F)F)n1 [Example 176, 6-[2-(2,2-difluoroethoxy)phenyl]-2-methyl-5-oxo-N-[6-(1,1,3,3-tetrafluoro-2-hydroxypropan-2-yl)pyridin-3-yl]-2,5-dihydropyridazine-4-carboxamide]
100	CC(C)(C#N)c1ccc(NC(=O)c2cn(C3CC3)nc(-c3ccccc3OCC(F)F)c2=O)cc1 [Example 192, N-[4-(2-cyanopropan-2-yl)phenyl]-2-cyclopropyl-6-[2-(2,2-difluoroethoxy)phenyl]-5-oxo-2,5-dihydropyridazine-4-carboxamide]
79	Cn1cc(C(=O)Nc2ccc(C(F)F)cc2)c(=O)c(-c2ccccc2OCC(F)F)n1 [Example 185, 6-[2-(2,2-difluoroethoxy)phenyl]-N-[4-(difluoromethyl)phenyl]-2-methyl-5-oxo-2,5-dihydropyridazine-4-carboxamide]
97	CC(C)(O)c1ccc(NC(=O)c2ccnn(-c3ccccc3OCC(F)(F)F)c2=O)cn1 [Example 126, N-[6-(2-hydroxypropan-2-yl)pyridin-3-yl]-3-oxo-2-[2-(2,2,2-trifluoroethoxy)phenyl]-2,3-dihydropyridazine-4-carboxamide]
100	Cc1cc(C(=O)Nc2ccc(C(C)(C)O)cc2)c(=O)n(-c2ccccc2OCC(F)(F)F)n1 [Example 131, N-[4-(2-hydroxypropan-2-yl)phenyl]-6-methyl-3-oxo-2-[2-(2,2,2-trifluoroethoxy)phenyl]-2,3-dihydropyridazine-4-carboxamide]
99	O=C(Nc1ccc(C2CCOC2)cc1)c1ccnn(-c2ccccc2OCC(F)F)c1=O (racemic) [Example 145, rac-2-[2-(2,2-difluoroethoxy)phenyl]-3-oxo-N-[4-(oxolan-3-yl)phenyl]-2,3-dihydropyridazine-4-carboxamide]
86	O=C(Nc1ccc(C(O)C2CC2)nc1)c1cccn(-c2ccc(F)cc2OCC(F)(F)F)c1=O (single isomer, unassigned) [Example 115, (R or S)-N-{6-[cyclopropyl(hydroxy)methyl]pyridin-3-yl}-1-[4-fluoro-2-(2,2,2-trifluoroethoxy)phenyl]-2-oxo-1,2-dihydropyridine-3-carboxamide]
100	O=C(Nc1ccc(C(O)(C(F)F)C(F)F)nc1)c1cn(C(F)F)nc(-c2ccccc2OCC(F)F)c1=O [Example 177, 6-[2-(2,2-difluoroethoxy)phenyl]-2-(difluoromethyl)-5-oxo-N-[6-(1,1,3,3-tetrafluoro-2-hydroxypropan-2-yl)pyridin-3-yl]-2,5-dihydropyridazine-4-carboxamide]
100	Cc1cc(C(=O)Nc2ccc(C(C)(C)O)cc2)c(=O)n(-c2ccc(F)cc2OCC(F)(F)F)c1 [Example 107, 1-[4-fluoro-2-(2,2,2-trifluoroethoxy)phenyl]-N-[4-(2-hydroxypropan-2-yl)phenyl]-5-methyl-2-oxo-1,2-dihydropyridine-3-carboxamide]
87	COc1cc(F)ccc1-n1nccc(C(=O)Nc2ccc(OCC(F)(F)F)nc2)c1=O [Example 23, 2-(4-fluoro-2-methoxyphenyl)-3-oxo-N-[6-(2,2,2-trifluoroethoxy)pyridin-3-yl]-2,3-dihydropyridazine-4-carboxamide]
98	CC(C)(O)c1ccc(NC(=O)c2cccn(-c3ccccc3OCC(F)(F)F)c2=O)cn1 [Example 84, N-[6-(2-hydroxypropan-2-yl)pyridin-3-yl]-2-oxo-1-[2-(2,2,2-trifluoroethoxy)phenyl]-1,2-dihydropyridine-3-carboxamide]
99	CC(C)(O)c1ccc(NC(=O)c2ccnn(-c3ccc(F)cc3OCC(F)(F)F)c2=O)cc1 [Example 95, 2-[4-fluoro-2-(2,2,2-trifluoroethoxy)phenyl]-N-[4-(2-hydroxypropan-2-yl)phenyl]-3-oxo-2,3-dihydropyridazine-4-carboxamide]
